This note sets out measurements from patent EP0992493A1, “Substituted benzoylpiperidine derivatives and their use as Neurokinin antagonists” (PFIZER INC., priority 1998, dated 2000).

SMILES strings stand for the structures. pKi: −log10 of the molar value. Structures can show the parent of a compound that is named as a salt. Where two headings read alike, the source gives them in different places.

As usually defined, the half-life is how long it takes for the measured level to halve. The pKi is the negative decadic logarithm of the Ki, by convention in mol/L. The low end stands for a large Ki, the high end for a small Ki.

One series addresses T1, NK3 receptor (Cavia porcellus, UniProt P30098).
T1 construct: membranes from guinea pig cortex; from tissue; host or cells: guinea pig cortex membranes
T1 sequence (P30098 1-440): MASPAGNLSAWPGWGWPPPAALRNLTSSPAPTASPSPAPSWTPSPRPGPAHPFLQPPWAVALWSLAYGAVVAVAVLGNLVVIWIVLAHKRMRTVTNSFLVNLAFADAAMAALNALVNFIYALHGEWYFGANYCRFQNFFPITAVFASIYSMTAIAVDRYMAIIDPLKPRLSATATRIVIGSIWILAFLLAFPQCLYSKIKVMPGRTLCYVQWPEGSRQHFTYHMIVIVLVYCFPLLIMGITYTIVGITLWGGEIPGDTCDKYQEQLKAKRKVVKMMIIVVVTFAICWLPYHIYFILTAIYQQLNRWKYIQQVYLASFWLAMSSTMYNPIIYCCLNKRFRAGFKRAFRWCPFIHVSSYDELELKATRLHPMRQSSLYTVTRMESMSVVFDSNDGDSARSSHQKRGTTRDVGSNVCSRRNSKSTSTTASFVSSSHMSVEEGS
Description: NK3 receptor affinity: inhibition of [3H]-senktide binding to guinea pig cortex membranes. On the procedure:
The compounds of the formula (I) and their salts can be tested for NK3 receptor affinity, in vitro, by testing their ability to inhibit [^3H]-senktide binding to membranes from guinea pig cortex using the method of Guard, et al, Br.J.Pharmacol., 99, 767-773 (1990).
NK3 receptor affinity was tested, in vitro, by the method described on pages 10 and 11 by testing the ability to inhibit [^3H]-senktide binding to membranes from guinea pig cortex using the method of Guard, et al, Br.J.Pharmacol., 99, 767-773 (1990). The pKi was then determined.
(§1) The "pKi" measurement is the negative logarithm of the molar affinity of the test compound for the receptor as determined in radioligand binding assays using standard protocols. A 1.0 log. unit difference in either the NK2 or NK3 receptor affinity figures corresponds to a 10-fold activity difference.

Series [1] in a line: In vitro metabolic stability: disappearance half-life in human liver microsomes (HLM/37). Type of series: in vitro ADME. The settings on record: human liver microsomes HLM/37 (0.5µM cytochrome P450), test compound 1µM, 37°C, NADPH, 60 minutes. The protocol: The in vitro metabolic stability of the compounds of the formula (I) and their salts can be tested by incubating samples for 1 hour at 37°C in the presence of a "moderate activity" (re. concentrations of cytochrome p450 enzymes present) human liver microsomal preparation (prepared from human liver homogenates). The samples were analysed by HPLC at regular intervals during this one hour period and the half-life (t½) determined (in minutes).
The metabolic stability of the compounds was determined in vitro by the method described on page 11 according to the following experimental protocol.
Transplant-quality human liver tissue was obtained from the International Institute for the Advancement of Medicine (Exton, PA). The donors ranged in age from 26 to 65 years old and included 3 males and 3 females. Hepatic microsomes were prepared from individual human livers by the process of differential centrifugation. Briefly, the liver tissue was homogenised in 50mM Tris HCI (pH 7.4) containing 250mM sucrose and then centrifuged at 9,000G for 20 minutes to remove the cell debris and nuclear fraction. The supernatant layer was removed and further centrifuged at 105,000G for 60 minutes to pellet the microsomal fraction. […] The cytochrome P450 content was determined using the method of Omura, T., Sato, R., J. Biol. Chem., 239, 2379-2385 (1964) and the protein concentration was determined using the method of Lowry et al., J. Biol. Chem., 193, 265-275 (1951), with bovine serum albumin as the protein standard.
The metabolic activities of the 6 major drug metabolising cytochrome P450 enzymes were determined for HLM/37 and compared to values obtained from a bank of individual human livers (n = 19). […]
Aliquots (100µl) were removed from the incubation at 0, 3, 5, 10, 15, 20, 30, 45 and 60 minutes after the addition of NADPH. […] After centrifugation 150µl aliquots were removed and 120µl of each of these analysed by HPLC on a Hypersil HS C18 5µ column (50x4.6mm) with a mobile phase of methanol:water (90:10, by volume) containing 2mM ammonium acetate. […]
A general note: Liver microsomes are a subcellular fraction often used to study metabolism.

The next series deals with T2, human NK2 receptor (Homo sapiens, UniProt P21452).
T2 sequence (P21452 1-398): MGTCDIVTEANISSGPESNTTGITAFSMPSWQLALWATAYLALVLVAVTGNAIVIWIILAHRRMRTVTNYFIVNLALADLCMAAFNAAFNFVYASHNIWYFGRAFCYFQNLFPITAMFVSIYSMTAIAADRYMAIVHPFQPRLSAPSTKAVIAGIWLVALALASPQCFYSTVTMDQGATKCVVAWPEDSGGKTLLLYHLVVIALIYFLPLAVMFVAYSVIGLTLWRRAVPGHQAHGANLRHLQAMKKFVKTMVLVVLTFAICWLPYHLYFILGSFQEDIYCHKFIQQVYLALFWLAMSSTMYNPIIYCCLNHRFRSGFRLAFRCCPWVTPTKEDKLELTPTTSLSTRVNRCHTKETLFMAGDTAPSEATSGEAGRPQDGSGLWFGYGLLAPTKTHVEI
Kind of series: Human NK2 receptor affinity: competition with [3H]-NKA for binding to CHO cell membranes. On the procedure:
The affinity of the compounds of formula (I) and their salts for the human NK2 receptor can be tested in vitro by testing their ability to compete with [^3H]-NKA (neurokinin A) for binding to membranes prepared from Chinese hamster ovary cells expressing the cloned human NK2 receptor. In this method, washed Chinese hamster ovary cell membranes are prepared as described for the previous method where IM9 cells are used instead. The membranes are incubated (90 min, 25°C) with [^3H]-NKA and with a range of concentrations of the test compound. Non-specific binding was determined in the presence of 10µM NKA.
Human NK2 receptor affinity was tested in vitro by testing the ability to compete with [^3H]-NKA for binding to membranes prepared from Chinese hamster ovary cells expressing the cloned human NK2 receptor using the method set out on page 10. The pKi was then determined.
as §1

Turning to `O=C(c1ccccc1)N1CCC[C@](CCN2CCC(C3CCOCC3)CC2)(c2ccc(Cl)c(Cl)c2)C1` [Example 2], the Ki at NK3 receptor ([3H]-senktide, membranes from guinea pig cortex, read-out: pKi (NK3) (converted)) is 63.1 nM; at human NK2 receptor ([3H]-NKA, membranes from Chinese hamster ovary cells expressing the cloned human NK2 receptor, 90 min, 25°C, read-out: pKi (NK2) (converted)), 6.31 nM. In series [1], this compound had a half-life at 1 µM of 28 min.
On to `CS(=O)(=O)N1CC(C2CCN(CC[C@]3(c4ccc(Cl)c(Cl)c4)CCCN(C(=O)c4ccccc4)C3)CC2)C1` [Example 10, 3(S)-1-Benzoyl-3-(3,4-dichlorophenyl)-3-{2-[4-(1-methylsulfonylazetidin-3-yl)piperidin-1-yl]ethyl}piperidine], for which the pKi on NK3 receptor was 7.70; at human NK2 receptor it was 8.30. This compound returned a half-life at 1 µM in series [1] of 32 min.
In the same order, the values of `CS(=O)(=O)N1CCC(C2CN(CC[C@]3(c4ccc(Cl)c(Cl)c4)CCCN(C(=O)c4ccccc4)C3)C2)CC1` [Example 6, 3(S)-1-Benzoyl-3-(3,4-dichlorophenyl)-3-{2-[3-(1-methylsulphonyl-4-piperidinyl)azetidin-1-yl]ethyl}piperidine hydrochloride] are 7.40, 8.30 and 53 min.
